# Data from ChEMBL document CHEMBL5257053, “Discovery of Orally Bioavailable FGFR2/FGFR3 Dual Inhibitors via Structure-Guided Scaffold Repurposing Approach” (ACS Med Chem Lett, 2023).
# Experiments:
# Activin receptor type-1 = target: T1, Activin receptor type-1 (Homo sapiens, UniProt Q04771); assay: Inhibition of recombinant human ALK2 (147 to end residues) expressed in Sf9 infected baculovirus expression system using TRF0130 as substrate incubated for 3 hrs in presence of […]
# T1 sequence (Q04771 whole entry): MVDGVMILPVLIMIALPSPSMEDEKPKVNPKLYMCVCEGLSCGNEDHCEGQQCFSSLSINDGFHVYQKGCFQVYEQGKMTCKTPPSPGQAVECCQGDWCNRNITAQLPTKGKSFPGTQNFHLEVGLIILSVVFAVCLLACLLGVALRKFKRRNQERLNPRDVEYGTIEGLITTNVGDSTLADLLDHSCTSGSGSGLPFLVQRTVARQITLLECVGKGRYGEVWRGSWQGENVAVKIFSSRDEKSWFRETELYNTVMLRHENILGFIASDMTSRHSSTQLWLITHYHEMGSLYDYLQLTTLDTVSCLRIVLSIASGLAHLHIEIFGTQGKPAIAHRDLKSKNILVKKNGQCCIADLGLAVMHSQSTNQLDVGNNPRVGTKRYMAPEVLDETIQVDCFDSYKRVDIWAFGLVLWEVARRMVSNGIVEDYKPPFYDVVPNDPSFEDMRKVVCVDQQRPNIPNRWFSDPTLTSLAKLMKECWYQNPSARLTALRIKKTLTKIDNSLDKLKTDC
# Cytochrome P450 2D6 = Cytochrome P450 2D6 (Homo sapiens, UniProt P10635); assay: Inhibition of CYP2D6 (unknown origin); assay type: ADME
# [1] = target: Vascular endothelial growth factor receptor 2 (Homo sapiens, UniProt P35968); assay: Inhibition of KDR (unknown origin) using peptide substrate incubated for 90 mins in presence of ATP by HTRF method
# [2] = Clearance in cynomolgus monkey at 3 mg/kg, po or 1 mg/kg, iv measured up to 24 hrs; assay type: ADME, organism-based, Macaca fascicularis; conditions: in vivo
# [3] = Clearance in Sprague-Dawley rat at 3 mg/kg, po or 1 mg/kg, iv measured up to 24 hrs; assay type: ADME, organism-based; conditions: in vivo
# [4] = Permeability in human Caco-2 cells incubated for 120 mins by LC-MS/MS analysis; assay type: ADME, cell-based; conditions: read-out: permeability
# [5] = target: T2, Fibroblast growth factor receptor 2 (Homo sapiens, UniProt P21802); assay: Inhibition of FGFR2 in human KATOIII cells incubated for 1 hr; assay type: cell-based, KATO III stomach cancer cell line
# [6] = Cmax in cynomolgus monkey at 3 mg/kg, po measured up to 24 hrs; assay type: ADME, organism-based, Macaca fascicularis; design: time < 24 hrs, dose 3 mg/kg, route po; conditions: in vivo
# [7] = Half life in cynomolgus monkey at 3 mg/kg, po or 1 mg/kg, iv measured up to 24 hrs; assay type: ADME, organism-based, Macaca fascicularis; conditions: in vivo
# [8] = target: Fibroblast growth factor receptor 3 (Mus musculus, UniProt Q61851); assay: Inhibition of FGFR3 phosphorylation in mouse BaF3 cells incubated for 2 hrs; assay type: cell-based
# [9] = Volume of distribution at steady state in Sprague-Dawley rat at 3 mg/kg, po or 1 mg/kg, iv measured up to 24 hrs; assay type: ADME, organism-based; conditions: in vivo
# [10] = Volume of distribution at steady state in cynomolgus monkey at 3 mg/kg, po or 1 mg/kg, iv measured up to 24 hrs; assay type: ADME, organism-based, Macaca fascicularis; conditions: in vivo
# Cytochrome P450 1A2 = target: T3, Cytochrome P450 1A2 (Homo sapiens, UniProt P05177); assay: Inhibition of CYP1A2 (unknown origin); assay type: ADME
# T3 sequence (P05177 whole entry): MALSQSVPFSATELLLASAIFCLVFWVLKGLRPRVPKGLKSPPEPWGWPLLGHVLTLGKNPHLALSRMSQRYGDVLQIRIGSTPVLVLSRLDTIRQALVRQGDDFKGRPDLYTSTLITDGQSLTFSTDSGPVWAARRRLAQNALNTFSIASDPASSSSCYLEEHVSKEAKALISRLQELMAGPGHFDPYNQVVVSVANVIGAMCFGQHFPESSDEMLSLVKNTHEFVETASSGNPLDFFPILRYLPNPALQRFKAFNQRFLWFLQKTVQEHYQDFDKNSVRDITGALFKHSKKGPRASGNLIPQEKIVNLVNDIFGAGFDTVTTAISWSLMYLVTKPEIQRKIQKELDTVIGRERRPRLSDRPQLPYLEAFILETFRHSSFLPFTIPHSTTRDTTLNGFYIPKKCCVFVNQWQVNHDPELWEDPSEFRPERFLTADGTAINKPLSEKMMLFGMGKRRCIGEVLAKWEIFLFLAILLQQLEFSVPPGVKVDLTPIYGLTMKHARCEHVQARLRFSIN
# [11] = AUCinfinity in cynomolgus monkey at 3 mg/kg, po measured up to 24 hrs; assay type: ADME, organism-based, Macaca fascicularis; design: time < 24 hrs, dose 3 mg/kg, route po; conditions: in vivo
# [12] = target: Fibroblast growth factor receptor 4 (Homo sapiens, UniProt P22455); assay: Inhibition of recombinant human FGFR4 (460 to 802 residues) using biotin-EQEDEPEGDYFEWLE-amide as substrate preincubated for 5 to 10 mins followed by substrate addition and measured after 1 hr in presence of ATP by HTRF assay
# [13] = Solubility of compound in stimulated gastric fluid; assay type: ADME; conditions: simulated gastric fluid
# Cytochrome P450 2B6 = target: T4, Cytochrome P450 2B6 (Homo sapiens, UniProt P20813); assay: Inhibition of CYP2B6 (unknown origin); assay type: ADME
# T4 sequence (P20813 whole entry): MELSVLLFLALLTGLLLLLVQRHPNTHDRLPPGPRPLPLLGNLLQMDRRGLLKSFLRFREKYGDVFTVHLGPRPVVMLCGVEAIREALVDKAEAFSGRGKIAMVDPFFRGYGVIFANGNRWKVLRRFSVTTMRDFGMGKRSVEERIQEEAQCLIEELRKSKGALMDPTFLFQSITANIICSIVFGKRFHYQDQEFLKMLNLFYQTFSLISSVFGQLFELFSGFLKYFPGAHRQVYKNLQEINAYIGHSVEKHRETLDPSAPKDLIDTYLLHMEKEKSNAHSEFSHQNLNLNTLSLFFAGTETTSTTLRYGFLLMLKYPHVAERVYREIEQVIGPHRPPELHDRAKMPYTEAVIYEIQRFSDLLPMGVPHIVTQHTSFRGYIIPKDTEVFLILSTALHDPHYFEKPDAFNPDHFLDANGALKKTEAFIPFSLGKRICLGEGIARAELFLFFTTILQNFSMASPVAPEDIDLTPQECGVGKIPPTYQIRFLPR
# Cytochrome P450 2C9 = Cytochrome P450 2C9 (Homo sapiens, UniProt P11712); assay: Inhibition of CYP2C9 (unknown origin); assay type: ADME
# [14] = target: T2, Fibroblast growth factor receptor 2; assay: Inhibition of recombinant human FGFR2 (400 to 821 residues) using biotin-EQEDEPEGDYFEWLE-amide as substrate preincubated for 5 to 10 mins followed by substrate addition and measured after 1 hr in presence of ATP by HTRF assay
# [15] = Solubility of compound in fasted state stimulated intestinal fluid; assay type: ADME; conditions: fasted state simulated intestinal fluid
# [16] = Oral bioavailability in cynomolgus monkey at 3 mg/kg measured up to 24 hrs; assay type: ADME, organism-based, Macaca fascicularis; conditions: in vivo
# [17] = Drug concentration in NSG mouse plasma at 30 mg/kg, po measured after 2 hrs; assay type: ADME, organism-based
# [18] = Half life in Sprague-Dawley rat at 3 mg/kg, po or 1 mg/kg, iv measured up to 24 hrs; assay type: ADME, organism-based; conditions: in vivo
# [19] = Protein binding in human plasma assessed as free fraction after 2 hrs by equilibrium dialysis method; assay type: ADME, cell-free
# Cytochrome P450 3A4 = Cytochrome P450 3A4 (Homo sapiens, UniProt P08684); assay: Inhibition of CYP3A4 (unknown origin); assay type: ADME
# [20] = AUCinfinity in Sprague-Dawley rat at 3 mg/kg, po measured up to 24 hrs; assay type: ADME, organism-based; design: dose 3 mg/kg, time < 24 hrs, route po; conditions: in vivo
# hERG (KCNH2) = hERG (KCNH2) (Homo sapiens, UniProt Q12809); assay: Inhibition of human ERG at 10 uM relative to control; assay type: toxicity
# [21] = Cmax in Sprague-Dawley rat at 3 mg/kg, po measured up to 24 hrs; assay type: ADME, organism-based; design: dose 3 mg/kg, time < 24 hrs, route po; conditions: in vivo
# [22] = Metabolic stability in human liver microsomes assessed as intrinsic clearance at 1 uM preincubated for 2 mins followed by NADPH addition and measured upto 30 mins by LC-MS/MS analysis; assay type: ADME, Microsome; conditions: time < 32 min, read-out: CLH (converted)
# [23] = Oral bioavailability in Sprague-Dawley rat at 3 mg/kg measured up to 24 hrs; assay type: ADME, organism-based; conditions: in vivo
# T2 sequence (P21802 whole entry): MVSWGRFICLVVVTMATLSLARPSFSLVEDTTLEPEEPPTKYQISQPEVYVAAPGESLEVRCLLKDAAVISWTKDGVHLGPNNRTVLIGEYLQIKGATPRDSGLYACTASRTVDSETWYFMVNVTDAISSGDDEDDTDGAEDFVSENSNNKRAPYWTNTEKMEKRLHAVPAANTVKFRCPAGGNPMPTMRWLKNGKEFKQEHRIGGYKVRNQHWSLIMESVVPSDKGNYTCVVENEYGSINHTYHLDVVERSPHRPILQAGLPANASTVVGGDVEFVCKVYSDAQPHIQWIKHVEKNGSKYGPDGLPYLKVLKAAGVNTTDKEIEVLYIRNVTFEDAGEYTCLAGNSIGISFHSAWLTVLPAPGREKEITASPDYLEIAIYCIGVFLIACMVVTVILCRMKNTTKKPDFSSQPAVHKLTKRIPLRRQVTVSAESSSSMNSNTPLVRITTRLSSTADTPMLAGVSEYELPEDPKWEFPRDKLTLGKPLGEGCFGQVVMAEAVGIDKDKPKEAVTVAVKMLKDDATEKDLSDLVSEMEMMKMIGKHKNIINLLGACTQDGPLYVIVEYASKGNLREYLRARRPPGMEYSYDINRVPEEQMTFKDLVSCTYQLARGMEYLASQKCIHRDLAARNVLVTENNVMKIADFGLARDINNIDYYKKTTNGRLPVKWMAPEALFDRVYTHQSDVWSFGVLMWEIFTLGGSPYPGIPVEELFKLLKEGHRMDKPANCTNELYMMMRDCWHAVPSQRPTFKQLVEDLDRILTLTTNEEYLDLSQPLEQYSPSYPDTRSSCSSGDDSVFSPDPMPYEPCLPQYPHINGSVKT
# Sequence of Cytochrome P450 3A4 (P08684 whole entry): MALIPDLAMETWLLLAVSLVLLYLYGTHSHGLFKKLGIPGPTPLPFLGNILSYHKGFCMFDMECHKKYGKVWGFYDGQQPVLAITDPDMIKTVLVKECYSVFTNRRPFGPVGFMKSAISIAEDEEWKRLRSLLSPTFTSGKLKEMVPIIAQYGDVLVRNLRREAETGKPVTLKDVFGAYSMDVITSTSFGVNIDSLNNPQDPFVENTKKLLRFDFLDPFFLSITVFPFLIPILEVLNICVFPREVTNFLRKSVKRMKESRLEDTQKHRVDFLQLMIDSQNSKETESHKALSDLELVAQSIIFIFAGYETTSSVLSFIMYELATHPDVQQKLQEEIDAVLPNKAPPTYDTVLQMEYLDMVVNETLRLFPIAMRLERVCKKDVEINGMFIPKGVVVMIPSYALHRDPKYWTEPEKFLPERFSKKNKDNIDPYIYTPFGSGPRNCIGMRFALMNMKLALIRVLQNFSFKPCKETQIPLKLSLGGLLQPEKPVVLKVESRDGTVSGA
# Sequence of hERG (KCNH2) (Q12809 whole entry): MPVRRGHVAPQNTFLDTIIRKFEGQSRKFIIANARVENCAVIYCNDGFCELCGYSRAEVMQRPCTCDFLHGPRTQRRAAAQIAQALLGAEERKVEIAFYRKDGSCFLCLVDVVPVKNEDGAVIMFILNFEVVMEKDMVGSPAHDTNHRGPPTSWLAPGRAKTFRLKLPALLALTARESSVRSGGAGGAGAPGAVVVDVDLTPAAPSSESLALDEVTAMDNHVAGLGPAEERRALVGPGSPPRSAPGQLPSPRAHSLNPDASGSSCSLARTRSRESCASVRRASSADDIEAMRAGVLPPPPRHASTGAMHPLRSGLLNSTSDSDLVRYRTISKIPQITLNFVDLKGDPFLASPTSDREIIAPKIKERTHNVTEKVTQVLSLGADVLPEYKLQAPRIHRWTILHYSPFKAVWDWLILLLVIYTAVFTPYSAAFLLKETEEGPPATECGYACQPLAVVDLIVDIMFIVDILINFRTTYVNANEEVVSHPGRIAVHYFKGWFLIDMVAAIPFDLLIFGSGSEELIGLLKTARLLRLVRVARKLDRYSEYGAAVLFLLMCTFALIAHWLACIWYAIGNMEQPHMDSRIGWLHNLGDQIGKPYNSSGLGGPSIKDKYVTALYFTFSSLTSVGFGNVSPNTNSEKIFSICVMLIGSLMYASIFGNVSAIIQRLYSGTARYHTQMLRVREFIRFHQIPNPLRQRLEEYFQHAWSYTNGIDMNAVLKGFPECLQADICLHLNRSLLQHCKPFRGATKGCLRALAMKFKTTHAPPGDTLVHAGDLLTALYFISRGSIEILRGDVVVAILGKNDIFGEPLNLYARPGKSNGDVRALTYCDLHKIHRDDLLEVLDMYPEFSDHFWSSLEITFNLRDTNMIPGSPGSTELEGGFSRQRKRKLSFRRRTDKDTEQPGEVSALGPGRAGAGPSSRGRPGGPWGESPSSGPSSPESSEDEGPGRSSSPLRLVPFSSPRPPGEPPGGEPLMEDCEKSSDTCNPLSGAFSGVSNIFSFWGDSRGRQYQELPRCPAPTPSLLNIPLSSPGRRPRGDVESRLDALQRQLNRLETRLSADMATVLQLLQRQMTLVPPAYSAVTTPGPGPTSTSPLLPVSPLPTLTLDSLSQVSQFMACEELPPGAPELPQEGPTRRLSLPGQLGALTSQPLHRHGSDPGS
# Sequence of Vascular endothelial growth factor receptor 2 (P35968 whole entry): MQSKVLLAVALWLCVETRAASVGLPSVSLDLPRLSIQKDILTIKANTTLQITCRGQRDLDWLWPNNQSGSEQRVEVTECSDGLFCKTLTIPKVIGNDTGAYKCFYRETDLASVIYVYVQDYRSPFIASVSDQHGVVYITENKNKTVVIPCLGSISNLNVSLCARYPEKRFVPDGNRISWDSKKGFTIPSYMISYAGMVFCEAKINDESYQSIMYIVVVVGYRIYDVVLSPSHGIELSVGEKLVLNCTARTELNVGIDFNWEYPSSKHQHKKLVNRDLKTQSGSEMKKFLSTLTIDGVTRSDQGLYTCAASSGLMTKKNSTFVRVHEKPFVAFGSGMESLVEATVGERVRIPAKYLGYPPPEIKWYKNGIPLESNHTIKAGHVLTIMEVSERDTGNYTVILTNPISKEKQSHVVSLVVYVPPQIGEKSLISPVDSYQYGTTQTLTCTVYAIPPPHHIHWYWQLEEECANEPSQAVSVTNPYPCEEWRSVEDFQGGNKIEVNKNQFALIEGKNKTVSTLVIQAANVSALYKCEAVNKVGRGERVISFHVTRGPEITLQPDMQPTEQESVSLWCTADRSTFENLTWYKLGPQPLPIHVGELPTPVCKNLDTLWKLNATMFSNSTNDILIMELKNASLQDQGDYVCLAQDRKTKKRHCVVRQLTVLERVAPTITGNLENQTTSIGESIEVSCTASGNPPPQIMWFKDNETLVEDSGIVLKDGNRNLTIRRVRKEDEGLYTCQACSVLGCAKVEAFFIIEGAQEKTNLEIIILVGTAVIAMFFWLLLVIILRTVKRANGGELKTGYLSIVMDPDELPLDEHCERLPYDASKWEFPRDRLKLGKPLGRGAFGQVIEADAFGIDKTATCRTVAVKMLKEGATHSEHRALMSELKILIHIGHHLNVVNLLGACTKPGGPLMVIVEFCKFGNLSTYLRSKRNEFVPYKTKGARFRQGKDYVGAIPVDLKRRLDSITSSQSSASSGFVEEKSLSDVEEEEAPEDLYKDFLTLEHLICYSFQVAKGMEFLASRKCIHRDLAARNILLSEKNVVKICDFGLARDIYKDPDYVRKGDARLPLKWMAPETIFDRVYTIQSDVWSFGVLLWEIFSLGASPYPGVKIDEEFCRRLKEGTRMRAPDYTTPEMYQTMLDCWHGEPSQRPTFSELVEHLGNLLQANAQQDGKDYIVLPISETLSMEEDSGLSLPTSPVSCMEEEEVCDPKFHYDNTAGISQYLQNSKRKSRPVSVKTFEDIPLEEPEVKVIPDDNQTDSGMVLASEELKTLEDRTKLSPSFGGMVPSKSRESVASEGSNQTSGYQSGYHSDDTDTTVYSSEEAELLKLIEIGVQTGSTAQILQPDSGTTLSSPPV
# Sequence of Fibroblast growth factor receptor 4 (P22455 whole entry, the tested form may be a part): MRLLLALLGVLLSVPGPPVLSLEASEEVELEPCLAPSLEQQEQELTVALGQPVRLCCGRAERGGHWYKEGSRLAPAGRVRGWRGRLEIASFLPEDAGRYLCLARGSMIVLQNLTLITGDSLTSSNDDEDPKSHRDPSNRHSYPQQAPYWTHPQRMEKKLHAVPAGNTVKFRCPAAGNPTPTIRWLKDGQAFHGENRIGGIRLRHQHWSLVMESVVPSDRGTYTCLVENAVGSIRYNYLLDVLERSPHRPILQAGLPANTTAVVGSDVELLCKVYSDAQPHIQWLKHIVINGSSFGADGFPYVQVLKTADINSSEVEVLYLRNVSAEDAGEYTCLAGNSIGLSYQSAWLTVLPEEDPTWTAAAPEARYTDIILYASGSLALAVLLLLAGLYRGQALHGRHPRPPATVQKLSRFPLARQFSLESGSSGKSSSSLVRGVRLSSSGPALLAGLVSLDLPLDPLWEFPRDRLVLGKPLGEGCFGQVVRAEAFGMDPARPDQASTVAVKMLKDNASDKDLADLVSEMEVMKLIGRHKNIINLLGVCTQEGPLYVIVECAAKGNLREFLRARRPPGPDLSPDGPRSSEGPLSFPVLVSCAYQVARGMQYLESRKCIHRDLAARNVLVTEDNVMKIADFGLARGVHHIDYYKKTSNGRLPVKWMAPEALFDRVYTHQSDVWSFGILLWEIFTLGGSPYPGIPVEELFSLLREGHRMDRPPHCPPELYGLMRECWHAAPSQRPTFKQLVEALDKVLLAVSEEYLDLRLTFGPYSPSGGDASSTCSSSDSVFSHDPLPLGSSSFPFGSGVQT
structure (smiles),measurement,setting,value
CN1C[C@@H]2CC[C@H](C1=O)N2c1ncc2[nH]nc(-c3cnn(C4CCC4)c3)c2n1,IC50,Activin receptor type-1,0.477 µM
same,IC50,Cytochrome P450 2D6,> 10 µM
same,IC50,[1],0.184 µM
same,CL,[2],12 mL/min/kg
same,CL,[3],23.3 mL/min/kg
same,Papp at 2 h,[4],4 ×10⁻⁶ cm/s
same,IC50,[5],0.024 µM
same,Cmax,[6],825 nM
same,half-life,[7],3.2 h
same,IC50,[8],0.016 µM
same,Vdss,[9],2.6 L/kg
same,Vdss,[10],0.66 L/kg
same,IC50,Cytochrome P450 1A2,> 10 µM
same,AUC(0-inf),[11],2.21 µM·h
same,IC50,[12],0.157 µM
same,solubility,[13],> 400 µg/mL
same,IC50,Cytochrome P450 2B6,> 10 µM
same,IC50,Cytochrome P450 2C9,> 10 µM
same,IC50,[14],0.0018 µM
same,solubility,[15],557 µg/mL
same,bioavailability,[16],20%
same,concentration at 2 h,[17],760 nM
same,half-life,[18],6.6 h
same,fraction unbound at 2 h,[19],0.11
same,IC50,Cytochrome P450 3A4,> 10 µM
same,AUC(0-inf),[20],5.82 µM·h
same,inhibition at 10 µM,hERG (KCNH2),< 10%
same,Cmax,[21],5550 nM
same,CLint scaled at 1 µM,[22],16.7 mL/min/kg
same,bioavailability,[23],100%
